Source: patent US4476120A, “Thiolic derivatives of erythromycin having therapeutic activity, and pharmaceutical compositions containing them” (Sigma Tau Indistrie Farmaceutiche Riunites, p.A, priority 1982, dated 1984)
Values after ≈ are worked out from the molar mass of the structure shown.

Columns and labels:
[1] = system: Pr. vulgaris SS 10; format: cell-based; conditions: Brain Heart Infusion, estolate and RV11-RV15 previously hydrolized, unit assumed
[2] = Acute toxicity; format: in vivo; conditions: mortality 10 days after treatment, mice
Description: The acute toxicity was assessed in Swiss white mice by oral and intravenous route. The LD50 values have been calculated by the methods of Probits, starting from the mortality recorded 10 days after the treatment.

[3] = system: Staph. albus SS 03; format: cell-based; conditions: Brain Heart Infusion, estolate and RV11-RV15 previously hydrolized, unit assumed
[4] = system: Staph. aureus SS 08; format: cell-based; conditions: Brain Heart Infusion, estolate and RV11-RV15 previously hydrolized, unit assumed
[5] = system: B. anthranis SS 09; format: cell-based; conditions: B. anthranis SS 09 (14 bis); Brain Heart Infusion; estolate and RV11-RV15 previously hydrolized; unit assumed
[6] = system: Ps. aeruginosa SS 10; format: cell-based; conditions: Brain Heart Infusion, estolate and RV11-RV15 previously hydrolized, unit assumed
[7] = system: E. cloacae SS 07; format: cell-based; conditions: Brain Heart Infusion, estolate and RV11-RV15 previously hydrolized, unit assumed
[8] = system: Strept. faecalis SS 19; format: cell-based; conditions: Brain Heart Infusion, estolate and RV11-RV15 previously hydrolized, unit assumed
[9] = system: Br. abortus SS 7; format: cell-based; conditions: Brain Heart Infusion, estolate and RV11-RV15 previously hydrolized, unit assumed
[10] = system: Strept. haemolyticus SS 17; format: cell-based; conditions: Brain Heart Infusion, estolate and RV11-RV15 previously hydrolized, unit assumed
[11] = system: Pr. mirabilis SS 09; format: cell-based; conditions: Brain Heart Infusion, estolate and RV11-RV15 previously hydrolized, unit assumed
[12] = system: S. infantis SS 08; format: cell-based; conditions: Brain Heart Infusion, estolate and RV11-RV15 previously hydrolized, unit assumed
[13] = system: Br. melitensis SS 19; format: cell-based; conditions: unit assumed
[14] = system: B. subtilis ATCC 6633; format: cell-based; conditions: Brain Heart Infusion, estolate and RV11-RV15 previously hydrolized, unit assumed
[15] = system: N. gonorreae SS 27; format: cell-based; conditions: Brain Heart Infusion, estolate and RV11-RV15 previously hydrolized, unit assumed
[16] = Histological examination of bronchi after SO2 inhalation; format: in vivo, Sprague Dawley male rats; conditions: i.m., 250 mg/kg
[17] = system: E. coli SS 04; format: cell-based; conditions: Brain Heart Infusion, estolate and RV11-RV15 previously hydrolized, unit assumed
[18] = system: Staph. aureus SS 07; format: cell-based; conditions: Brain Heart Infusion, estolate and RV11-RV15 previously hydrolized, unit assumed
[19] = system: E. coli SS 07; format: cell-based; conditions: Brain Heart Infusion, estolate and RV11-RV15 previously hydrolized, unit assumed
[20] = system: Sr. marcescens SS 03; format: cell-based; conditions: Brain Heart Infusion, estolate and RV11-RV15 previously hydrolized, unit assumed
[21] = system: H. influentiae SS 02; format: cell-based; conditions: Brain Heart Infusion, estolate and RV11-RV15 previously hydrolized, unit assumed
[22] = system: E. coli SS 05; format: cell-based; conditions: Brain Heart Infusion, estolate and RV11-RV15 previously hydrolized, unit assumed
[23] = system: B. subtilis SS 127; format: cell-based; conditions: Brain Heart Infusion, estolate and RV11-RV15 previously hydrolized, unit assumed
[24] = system: Citrobacter SS 09; format: cell-based; conditions: Brain Heart Infusion, estolate and RV11-RV15 previously hydrolized, unit assumed
[25] = system: Strept. haemolyticus SS 18; format: cell-based; conditions: Brain Heart Infusion, estolate and RV11-RV15 previously hydrolized, unit assumed
[26] = system: Kl. aerogenes SS 71; format: cell-based; conditions: Brain Heart Infusion, estolate and RV11-RV15 previously hydrolized, unit assumed
[27] = system: Cl. tetani SS 17; format: cell-based; conditions: Brain Heart Infusion, estolate and RV11-RV15 previously hydrolized, unit assumed
[28] = Mucolytic activity: obstruction of the bronchial tract after SO2 inhalation; format: in vivo, Sprague Dawley male rats; conditions: i.m., 250 mg/kg; SO2, 15 days
[29] = system: D. pneumoniae SS 23; test: Experimental infection induced by D. pneumoniae SS 23; format: in vivo, Swiss white mice; conditions: D. pneumoniae SS 23, mg/kg of erythromycin, survival after 7 days, 10080 min
Procedure, shortened: (§1)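 Swiss mice of 20 g infected parenterally with lethal amounts of Staph. aureus SS 07 or D. pneumoniae SS 23. Antibiotics were given at infection and again 6 and 24 h later. ED50 was derived from survival at 7 days.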

[30] = system: H. tubercolosis SS 03; format: cell-based; conditions: Brain Heart Infusion, estolate and RV11-RV15 previously hydrolized, unit assumed
Excerpt: (§2) In the following table I the MIC/ml values are indicated corresponding to the lowest concentration capable of inducing a complete inhibition of the bacterial development.

[31] = system: Kl. pneumoniae SS 04; format: cell-based; conditions: Brain Heart Infusion, estolate and RV11-RV15 previously hydrolized, unit assumed
Excerpt: as §2

[32] = system: H. pertussis SS 03; format: cell-based; conditions: Brain Heart Infusion, estolate and RV11-RV15 previously hydrolized, unit assumed
[33] = system: Staph. aureus SS 10; format: cell-based; conditions: Brain Heart Infusion, estolate and RV11-RV15 previously hydrolized, unit assumed
[34] = system: C. diphtheriae SS 19; format: cell-based; conditions: Brain Heart Infusion, estolate and RV11-RV15 previously hydrolized, unit assumed
[35] = system: Staph. aureus SS 09; format: cell-based; conditions: Brain Heart Infusion, estolate and RV11-RV15 previously hydrolized, unit assumed
[36] = system: Citrobacter SS 05; format: cell-based; conditions: Brain Heart Infusion, estolate and RV11-RV15 previously hydrolized, unit assumed
[37] = system: B. anthranis SS 08; format: cell-based; conditions: Brain Heart Infusion, estolate and RV11-RV15 previously hydrolized, unit assumed
[38] = system: S. lutea ATCC 9341; format: cell-based; conditions: Brain Heart Infusion, estolate and RV11-RV15 previously hydrolized, unit assumed
[39] = system: E. aerogenes SS 011; format: cell-based; conditions: Brain Heart Infusion, estolate and RV11-RV15 previously hydrolized, unit assumed
[40] = system: Staph. albus SS 04; format: cell-based; conditions: Brain Heart Infusion, estolate and RV11-RV15 previously hydrolized, unit assumed
[41] = system: Staph. aureus SS 07; test: Experimental infection induced by Staph. aureus SS 07; format: in vivo, Swiss white mice; conditions: Staph. aureus SS 07, mg/kg of erythromycin, survival after 7 days, 10080 min
Procedure, shortened: as §1

[42] = system: C. albicans SS 04; format: cell-based; conditions: Brain Heart Infusion, estolate and RV11-RV15 previously hydrolized, unit assumed

SMILES: CC[C@H]1OC(=O)[C@H](C)[C@@H](O[C@H]2C[C@@](C)(OC)[C@@H](O)[C@H](C)O2)[C@H](C)[C@@H](O[C@@H]2O[C@H](C)C[C@H](N(C)C)[C@H]2O)[C@](C)(O)C[C@@H](C)C(=O)[C@H](C)[C@@H](O)[C@]1(C)O [RV05, erythromycin-N-acetylcysteinate]
- MIC [1]: > 200 µg/mL
- LD50 (reliability limits) ([2]; i.v., 14400 min): 472.84 (529.08-442.57) mg.kg
- LD50 (reliability limits) ([2]; os): > 3000 mg·kg
- MIC [3]: 0.05 µg/mL (≈ 0.0681 µM)
- MIC [4]: 0.025 µg/mL (≈ 0.0341 µM)
- MIC [5]: 0.4 µg/mL (≈ 0.545 µM)
- MIC [6]: 200 µg/mL (≈ 273 µM)
- MIC [7]: > 200 µg/mL
- MIC [8]: 0.2 µg/mL (≈ 0.273 µM)
- MIC [9]: 12 µg/mL (≈ 16.4 µM)
- MIC [10]: 3 µg/mL (≈ 4.09 µM)
- MIC [11]: > 200 µg/mL
- MIC [12]: 100 µg/mL (≈ 136 µM)
- MIC [13]: 3 µg/mL (≈ 4.09 µM)
- MIC [14]: 0.01 µg/mL (≈ 0.0136 µM)
- MIC [15]: 0.8 µg/mL (≈ 1.09 µM)
- histological appearance of non obstructed bronchi ([16]; free non obstructed): practically normal appearance
- histological appearance of obstructed bronchial tract ([16]; obstructed): an appearance like that of the control animals
- MIC [17]: 100 µg/mL (≈ 136 µM)
- MIC [18]: 0.025 µg/mL (≈ 0.0341 µM)
- MIC [19]: 25 µg/mL (≈ 34.1 µM)
- MIC [20]: 200 µg/mL (≈ 273 µM)
- MIC [21]: 0.8 µg/mL (≈ 1.09 µM)
- MIC [22]: 25 µg/mL (≈ 34.1 µM)
- MIC [23]: 0.01 µg/mL (≈ 0.0136 µM)
- MIC [24]: > 200 µg/mL
- MIC [25]: 0.8 µg/mL (≈ 1.09 µM)
- MIC [26]: 50 µg/mL (≈ 68.1 µM)
- MIC [27]: 0.2 µg/mL (≈ 0.273 µM)
- Partial obstruction (% incidence) [28]: 6.66%
- Total obstruction, compact plug (% incidence) [28]: 20%
- Total obstruction, nodular mass (% incidence) [28]: 13.33%
- Total obstruction, pimply mass (% incidence) [28]: 6.66%
- ED50 (reliability limits) ([29]; os): 119.31 (150.05-94.87) mg/kg
- ED50 (reliability limits) ([29]; s.c.): 50.22 (62.33-40.46) mg/kg
- MIC [30]: 50 µg/mL (≈ 68.1 µM)
- MIC [31]: 50 µg/mL (≈ 68.1 µM)
- MIC [32]: 0.2 µg/mL (≈ 0.273 µM)
- MIC [33]: 0.025 µg/mL (≈ 0.0341 µM)
- MIC [34]: 0.05 µg/mL (≈ 0.0681 µM)
- MIC [35]: 0.1 µg/mL (≈ 0.136 µM)
- MIC [36]: > 200 µg/mL
- MIC [37]: 0.4 µg/mL (≈ 0.545 µM)
- MIC [38]: 0.01 µg/mL (≈ 0.0136 µM)
- MIC [39]: 100 µg/mL (≈ 136 µM)
- MIC [40]: 0.025 µg/mL (≈ 0.0341 µM)
- ED50 (reliability limits) ([41]; os): 2.08 (2.38-1.83) mg/kg
- ED50 (reliability limits) ([41]; s.c.): 1.33 (1.61-1.10) mg/kg
- MIC [42]: 100 µg/mL (≈ 136 µM)
